As usually defined, the melting point is the temperature, or range, at which the solid turns liquid.

For data set [1], the system named is bronchoconstrictor response induced by leukotriene D4. Nature of the data set: Inhibition test of bronchoconstriction in guinea pig. The arrangement: unit not given here. It counts as in vivo. Conditions: 2 hours before i.v. leukotriene D4 (3 μg/kg), anesthetized male Hartley guinea pig. Here is the method:
Male Hartley guinea pig weighing about 450 g was anesthetized with sodium pentobarbital (30 mg/kg,i.p.), and the changes in transpulmonary pressure was measured according to the modified method of Konzett-Rössler (J. Harvey et al., J. Pharmacol. Method. 9, 147-155, 1983). Bronchoconstrictor response was induced by injection of leukotriene D4 (3 μg/kg) into left jugular vein. Further, indomethacin and propranolol were injected into vein of the animal, prior to the injection of leukotriene D4. Test compounds suspended in 5% solution of Gum Arabic were administered orally 2 hours before the injection of leukotriene D4.

Regarding `CCCc1c(SCCCOc2ccc(C(C)=O)c(OCCCC(=O)OCC)c2CCC)ccc(C(C)=O)c1O` [Example 1, Ethyl 4-[6-acetyl-3-[3-(4-acetyl-3-hydroxy-2-propylphenylthio)propoxy]-2-propylphenoxy]butyrate], the melting point lay in the range of 65 to 66 °C.
Molecule `CCCc1c(OCCCSc2ccc(C(C)=O)c(OCCCC(=O)OCC)c2CCC)ccc(C(C)=O)c1O` [Example 23, Ethyl 4-[6-acetyl-3-[3-(4-acetyl-3-hydroxy-2-propyl-phenoxy)propylthio]-2-propylphenoxy]butyrate] yielded a melting point of 87 to 88 °C.
The molecule `CCCc1c([S+]([O-])CCCOc2ccc(C(C)=O)c(OCCCC(=O)OCC)c2CCC)ccc(C(C)=O)c1O` (stereo not drawn) [Example 31, Ethyl 4-[6-acetyl-3-[3-(4-acetyl-3-hydroxy-2-propyl-phenylsulfinyl)propoxy]-2-propylphenoxy]butyrate] gave a melting point of 74 to 76 °C.
The same measure, in the same setting: the same measure for `CCCc1c(S(=O)(=O)CCCOc2ccc(C(C)=O)c(OCCCC(=O)OCC)c2CCC)ccc(C(C)=O)c1O` [Example 32, Ethyl 4-[6-acetyl-3-[3-(4-acetyl-3-hydroxy-2-propyl-phenylsulfonyl)propoxy]-2-propylphenoxy]butyrate]: 77 to 79 °C.
With `CCCc1c(SCCCOc2ccc(C(C)=O)c(OCCCC(=O)O)c2CCC)ccc(C(C)=O)c1O` [Example 33, 4-[6-Acetyl-3-[3-(4-acetyl-3-hydroxy-2-propyl-phenylthio)propoxy]-2-propylphenoxy]butyric acid], the Inhibition in data set [1] (dose 3.125 mg/kg p.o.) was 28.0; in data set [1] (dose 6.25 mg/kg p.o.) it was 40.2; in data set [1] (dose 12.5 mg/kg p.o.), 63.9; in data set [1] (dose 50 mg/kg p.o.) it was 94.8.
Regarding `CCCc1c(SCCCOc2ccc(C(C)=O)c(OCCCCCC(=O)O)c2CCC)ccc(C(C)=O)c1O` [Example 35], the Inhibition was 10.7 in data set [1] (dose 6.25 mg/kg p.o.), 51.3 in data set [1] (dose 12.5 mg/kg p.o.) and 92.4 in data set [1] (dose 50 mg/kg p.o.).
Consider `CCCc1c(SCCCSc2ccc(C(C)=O)c(OCCCC(=O)O)c2CCC)ccc(C(C)=O)c1O` [Example 45], for which the Inhibition in data set [1] (dose 1.56 mg/kg p.o.) is given as 22.4; in data set [1] (dose 3.125 mg/kg p.o.) it was 54.2; in data set [1] (dose 6.25 mg/kg p.o.), 71.3; in data set [1] (dose 12.5 mg/kg p.o.) it was 72.7; in data set [1] (dose 50 mg/kg p.o.), 96.2.
In the case of `CCCc1c(SCCCSc2ccc(C(C)=O)c(OCCCCC(=O)O)c2CCC)ccc(C(C)=O)c1O` [Example 46], the Inhibition in data set [1] (dose 3.125 mg/kg p.o.) worked out at 38.5; in data set [1] (dose 6.25 mg/kg p.o.), 46.6; in data set [1] (dose 12.5 mg/kg p.o.), 37.5; in data set [1] (dose 50 mg/kg p.o.) it was 94.2.
In the case of `CCCc1c(SCCCSc2ccc(C(C)=O)c(OCCCCCC(=O)O)c2CCC)ccc(C(C)=O)c1O` [Example 47], the Inhibition in data set [1] (dose 3.125 mg/kg p.o.) was determined as 29.1; in data set [1] (dose 12.5 mg/kg p.o.), 72.5; in data set [1] (dose 50 mg/kg p.o.), 92.9.
In the same order, the values of `CCCc1c(SCCCSc2ccc(C(C)=O)c(OCCCCCCC(=O)O)c2CCC)ccc(C(C)=O)c1O` [Example 48] are 33.6, 79.7 and 90.7.
Regarding `CCCc1c(SCCCSc2ccc(C(C)=O)c(OCCCCCCCCC(=O)O)c2CCC)ccc(C(C)=O)c1O` [Example 49], the Inhibition in data set [1] (dose 6.25 mg/kg p.o.) is 19.1; in data set [1] (dose 12.5 mg/kg p.o.), 58.9; in data set [1] (dose 50 mg/kg p.o.), 77.7.
Take `CCCc1c(OCCCSc2ccc(C(C)=O)c(OCCCC(=O)O)c2CCC)ccc(C(C)=O)c1O` [Example 53]: the Inhibition in data set [1] (dose 3.125 mg/kg p.o.) worked out at 15.2; in data set [1] (dose 6.25 mg/kg p.o.) it was 50.4; in data set [1] (dose 12.5 mg/kg p.o.) it was 60.4; in data set [1] (dose 50 mg/kg p.o.), 66.7.
Consider `CCCc1c(OCCCSc2ccc(C(C)=O)c(OCCCCCC(=O)O)c2CCC)ccc(C(C)=O)c1O` [Example 55], for which the Inhibition in data set [1] (dose 6.25 mg/kg p.o.) stood at 36.4; in data set [1] (dose 12.5 mg/kg p.o.), 45.0; in data set [1] (dose 50 mg/kg p.o.) it was 88.0.

The values above are taken from USRE38921E1, “Phenoxyalkylcarboxylic acid derivatives and process for their preparations” (Kyorin Pharmaceutical Co., Ltd., priority 1988, dated 2005).
